Reference: US20250213627A1, “RECOMBINANT MICROORGANISM-BASED METHODS AND COMPOSITIONS FOR TREATMENT OF DISEASE” (Baylor College of Medicine, priority 2021, published 2025)

Tests used:
mKv1.3 channels = biological target: T1, mKv1.3 channels (Mus musculus, UniProt P16390); experiment: Whole-cell patch-clamp block of Kv1.3 currents in L929 fibroblasts stably expressing mKv1.3; assay type: cell-based
T1 construct: expressed in transfected cells
Experimental: In the absence of antibodies directed to ShK-235, the inventors used functional assays to identify and quantify ShK-235 expression and secretion into culture supernatants of LrS235. In more detail, the presence of active peptide was assayed by using whole-cell patch-clamp to test the ability of LrS235 supernatants to block Kv1.3 channels in mouse L929 fibroblasts stably expressing mKv1.3 channels. LrS235 and LrGusA were grown to mid-exponential phase and induced for expression of ShK-235 or GusA, and supernatants were processed as described in the materials and methods. […] Culture supernatant from LrS235 and LrGusA was tested for Kv1.3 channel block and the dose-response curve used to calculate the concentration of ShK-235 in supernatants.
Patch-clamp electrophysiology. To determine the concentration of ShK-235 in the LrS235 supernatants and rat sera, a dose-response of ShK-235 block of Kv1.3 was determined by adding known concentrations of the peptide to naïve rat serum and then testing by whole-cell patch-clamp of mouse L929 fibroblasts stably expressing mKv1.3 channels (45) using a PORT-A-PATCH® automated patch-clamp system (Nanion, Livingston, NJ), as described (16, 46). Culture supernatants and serum samples were then assessed with the same technique, and the dose-response curve was used to determine peptide concentration.

Kv1.3 = Kv1.3 (Mus musculus, UniProt P16390); experiment: Block of Kv1.3 channel, reported potency; assay type: cell-based; conditions: FIGS. 5A-5B; n=4 cells per concentration
Kv1.3, sequence (P16390 whole entry): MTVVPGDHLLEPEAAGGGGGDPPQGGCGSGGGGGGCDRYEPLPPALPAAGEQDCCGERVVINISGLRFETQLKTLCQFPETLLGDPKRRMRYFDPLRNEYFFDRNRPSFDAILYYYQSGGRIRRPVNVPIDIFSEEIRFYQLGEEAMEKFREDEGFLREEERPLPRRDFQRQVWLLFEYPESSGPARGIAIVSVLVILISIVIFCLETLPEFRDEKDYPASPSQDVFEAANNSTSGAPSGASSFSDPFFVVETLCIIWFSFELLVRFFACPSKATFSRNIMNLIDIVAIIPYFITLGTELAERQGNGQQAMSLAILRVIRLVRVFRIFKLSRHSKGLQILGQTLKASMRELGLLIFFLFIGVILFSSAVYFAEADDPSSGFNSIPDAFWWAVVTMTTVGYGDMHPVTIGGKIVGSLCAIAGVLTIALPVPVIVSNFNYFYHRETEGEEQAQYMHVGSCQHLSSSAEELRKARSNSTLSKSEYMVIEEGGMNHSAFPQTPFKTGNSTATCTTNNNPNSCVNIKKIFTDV

[1] = Thermal stability of peptide

T1 sequence (P16390 whole entry): as above

CC[C@H](C)[C@@H]1NC(=O)[C@H](CO)NC(=O)[C@H](Cc2c[nH]cn2)NC(=O)[C@H](CCCCN)NC(=O)[C@@H]2CSSC[C@@H]3NC(=O)[C@H]([C@@H](C)O)NC(=O)[C@H](CCCCN)NC(=O)[C@H](CCCNC(=N)N)NC(=O)[C@H](CSSC[C@H](NC(=O)[C@H](CCCNC(=N)N)NC(=O)[C@H](CO)NC(=O)[C@H](CCCCN)NC(=O)[C@@H]4CCCN4C(=O)[C@H]([C@@H](C)CC)NC(=O)[C@H]([C@@H](C)O)NC(=O)[C@H](CC(=O)O)NC(=O)[C@H]([C@@H](C)CC)NC(=O)[C@@H](NC(=O)[C@H](CO)NC(=O)[C@@H](N)CCCNC(=N)N)CSSC[C@@H](C(=O)N[C@@H](C)C(=O)O)NC(=O)[C@H]([C@@H](C)O)NC(=O)CNC3=O)C(=O)N[C@@H]([C@@H](C)O)C(=O)N[C@@H](C)C(=O)N[C@@H](Cc3ccccc3)C(=O)N[C@@H](CCCCN)C(=O)N2)NC(=O)[C@H](Cc2ccccc2)NC(=O)[C@H](CO)NC(=O)[C@H](CC(C)C)NC(=O)[C@H](CCCNC(=N)N)NC(=O)[C@H](Cc2ccc(O)cc2)NC(=O)[C@H](CCCCN)NC1=O [ShK-235]
IC50 (mKv1.3 channels): 69.3 ± 24 pM | IC50 (Kv1.3): 62 pM | Temperature stability [1]: up to 80 °C
